According to ChEMBL document CHEMBL5346954, “Rational Design of RNA Demethylase FTO Inhibitors with Enhanced Antileukemia Drug-Like Properties” (J Med Chem, 2023):
In brackets after ≈: the same amount, converted by molar mass. Each block holds one compound with its values, some of them ahead of it. Activity calls are given as the source filed them. No cut-off for these calls is given here.

Experiments:
[1] = Permeability of the compound by PAMPA; type: ADME; settings: read-out: permeability
NB-4 [2] = experiment: Antiproliferative activity against human NB4 cells incubated for 72 hrs by CCK8 assay; type: functional, cell-based; settings: NB-4, 72 h
[3] = Solubility of the compound in PBS at pH 7.4; type: physicochemical
MOLM-13 [4] = experiment: Antiproliferative activity against human MOLM-13 cells incubated for 72 hrs by CCK8 assay; type: functional, cell-based; settings: MOLM-13, 72 h
[5] = target: T1, Alpha-ketoglutarate-dependent dioxygenase FTO (Homo sapiens, UniProt Q9C0B1); experiment: Inhibition of FTO (unknown origin)
Target sequence in this assay (Q9C0B1 whole entry): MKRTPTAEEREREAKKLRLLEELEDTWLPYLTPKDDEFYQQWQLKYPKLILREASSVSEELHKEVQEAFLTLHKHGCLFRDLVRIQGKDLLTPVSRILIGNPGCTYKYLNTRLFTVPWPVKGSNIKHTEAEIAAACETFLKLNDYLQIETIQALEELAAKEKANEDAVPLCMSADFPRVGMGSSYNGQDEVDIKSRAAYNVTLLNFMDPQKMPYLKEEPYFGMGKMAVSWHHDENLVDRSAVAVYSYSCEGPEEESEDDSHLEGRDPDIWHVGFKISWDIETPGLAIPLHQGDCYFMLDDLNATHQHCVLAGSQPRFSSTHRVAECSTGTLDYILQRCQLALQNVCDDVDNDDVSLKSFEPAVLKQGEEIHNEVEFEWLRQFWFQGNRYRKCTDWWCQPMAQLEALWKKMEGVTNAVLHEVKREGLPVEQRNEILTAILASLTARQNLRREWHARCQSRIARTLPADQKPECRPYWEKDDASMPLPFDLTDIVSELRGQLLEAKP

[6] = Tmax in ICR mouse at 1 mg/kg, iv measured upto 24 hrs by LC-MS/MS analysis; type: ADME, organism-based; settings: in vivo
[7] = Oral bioavailability in ICR mouse at 10 mg/kg measured upto 24 hrs by LC-MS/MS analysis; type: ADME, organism-based; settings: in vivo
[8] = target: T1, Alpha-ketoglutarate-dependent dioxygenase FTO; experiment: Inhibition of FTO (unknown origin) by PAGE based assay
Target sequence in this assay (Q9C0B1 whole entry): as above

[9] = target: RNA demethylase ALKBH5 (Homo sapiens) (UniProt Q6P6C2); experiment: Inhibition of ALKBH5 (unknown origin)
Chain of RNA demethylase ALKBH5 (Homo sapiens) (Q6P6C2 2-394 limits assumed): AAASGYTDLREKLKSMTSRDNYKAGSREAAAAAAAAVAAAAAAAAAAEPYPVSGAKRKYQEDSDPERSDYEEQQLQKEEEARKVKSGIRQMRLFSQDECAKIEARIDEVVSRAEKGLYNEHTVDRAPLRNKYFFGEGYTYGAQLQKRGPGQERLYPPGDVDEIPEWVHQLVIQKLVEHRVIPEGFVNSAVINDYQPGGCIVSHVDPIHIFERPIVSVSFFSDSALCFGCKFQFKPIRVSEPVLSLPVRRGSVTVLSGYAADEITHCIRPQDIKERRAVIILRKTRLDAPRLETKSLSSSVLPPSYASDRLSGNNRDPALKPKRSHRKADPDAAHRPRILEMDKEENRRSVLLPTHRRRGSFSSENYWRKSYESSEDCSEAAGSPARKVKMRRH

[10] = Metabolic stability in mouse liver microsomes assessed as intrinsic clearance per mg of protein; type: ADME, Microsome; settings: read-out: CLH
[11] = target: T1, Alpha-ketoglutarate-dependent dioxygenase FTO; experiment: Inhibition of FTO in human MOLM-13 cells assessed as downregulation Myc protein level at 5 to 10 uM incubated for 48 hrs by Western blot analysis; type: cell-based; settings: dose 5-10 µM
Target sequence in this assay (Q9C0B1 whole entry, looked up): as the sequence (Q9C0B1 whole entry) above

[12] = Metabolic stability in mouse liver microsomes assessed as half life; type: ADME, Microsome
[13] = AUC(0 to infinity) in ICR mouse at 1 mg/kg, iv measured upto 24 hrs by LC-MS/MS analysis; type: ADME, organism-based; design: dose 1 mg/kg, time < 24 hrs, route iv; settings: in vivo
[14] = Toxicity in BALB/c mouse xenografted with human MV4-11 cells assessed as body weight loss at 40 mg/kg, ip administered daily for 26 days; type: organism-based; settings: in vivo, 624 h, time 26 day
[15] = target: T1, Alpha-ketoglutarate-dependent dioxygenase FTO; experiment: Inhibition of FTO in human MOLM-13 cells assessed as upregulation RARA RNA level at 5 to 10 uM incubated for 72 hrs by RT-qPCR analysis; type: cell-based; settings: dose 5-10 µM
Target sequence in this assay (Q9C0B1 whole entry, looked up): as the sequence (Q9C0B1 whole entry) above

[16] = target: T1, Alpha-ketoglutarate-dependent dioxygenase FTO; experiment: Inhibition of FTO in human MOLM-13 cells assessed as downregulation Myc RNA level at 5 to 10 uM incubated for 72 hrs by RT-qPCR analysis; type: cell-based; settings: dose 5-10 µM
Target sequence in this assay (Q9C0B1 whole entry, looked up): as the sequence (Q9C0B1 whole entry) above

[17] = target: T1, Alpha-ketoglutarate-dependent dioxygenase FTO; experiment: Inhibition of FTO in human MOLM-13 cells assessed as increase in abundance of m6A on RNA at 5 to 20 uM incubated for 48 hrs by dot-blot assay; type: cell-based; settings: dose 5-20 µM
Target sequence in this assay (Q9C0B1 whole entry, looked up): as the sequence (Q9C0B1 whole entry) above

[18] = AUC(0 to t) in ICR mouse at 1 mg/kg, iv measured upto 24 hrs by LC-MS/MS analysis; type: ADME, organism-based; design: time < 24 hrs, dose 1 mg/kg, route iv; settings: in vivo
MV4-11 [19] = experiment: Antitumor activity against human MV4-11 cells xenografted in BALB/c mouse assessed as reduction in tumor weight at 40 mg/kg, ip administered daily for 26 days; type: functional, organism-based; settings: time 26.0 day
MV4-11 [20] = experiment: Antitumor activity against human MV4-11 cells xenografted in BALB/c mouse assessed as reduction in tumor volume at 40 mg/kg, ip administered daily for 26 days; type: functional, organism-based; settings: time 26.0 day
[21] = Cmax in ICR mouse at 1 mg/kg, iv measured upto 24 hrs by LC-MS/MS analysis; type: ADME, organism-based; design: time < 24 hrs, dose 1 mg/kg, route iv; settings: in vivo
[22] = target: T1, Alpha-ketoglutarate-dependent dioxygenase FTO; experiment: Inhibition of FTO in human NB4 cells assessed as increase in abundance of m6A on RNA at 5 to 20 uM incubated for 48 hrs by dot-blot assay; type: cell-based; settings: dose 5-20 µM
Target sequence in this assay (Q9C0B1 whole entry, looked up): as the sequence (Q9C0B1 whole entry) above

[23] = target: T1, Alpha-ketoglutarate-dependent dioxygenase FTO; experiment: Inhibition of FTO (unknown origin) using (5'-AUUGUCA(M6A)CAGCAGC-3') as substrate incubated for 2 hrs by dot-blot assay
Target sequence in this assay (Q9C0B1 whole entry): as above

HEL = experiment: Antiproliferative activity against HEL cells incubated for 72 hrs by CCK8 assay; type: functional, cell-based; settings: Homo sapiens
[24] = Cmax in ICR mouse at 10 mg/kg, po measured upto 24 hrs by LC-MS/MS analysis; type: ADME, organism-based; design: dose 10 mg/kg, time < 24 hrs, route po; settings: in vivo
[25] = target: T1, Alpha-ketoglutarate-dependent dioxygenase FTO; experiment: Inhibition of FTO in human MOLM-13 cells assessed as upregulation RARA protein level at 5 to 10 uM incubated for 48 hrs by Western blot analysis; type: cell-based; settings: dose 5-10 µM
Target sequence in this assay (Q9C0B1 whole entry, looked up): as the sequence (Q9C0B1 whole entry) above

[26] = AUC(0 to t) in ICR mouse at 10 mg/kg, po measured upto 24 hrs by LC-MS/MS analysis; type: ADME, organism-based; design: dose 10 mg/kg, time < 24 hrs, route po; settings: in vivo
[27] = Metabolic stability in human liver microsomes assessed as intrinsic clearance per mg of protein; type: ADME, Microsome; settings: read-out: CLH
KG-1 = experiment: Antiproliferative activity against human KG-1 cells incubated for 72 hrs by CCK8 assay; type: functional, cell-based; settings: KG-1, 72 h
[28] = AUC(0 to infinity) in ICR mouse at 10 mg/kg, po measured upto 24 hrs by LC-MS/MS analysis; type: ADME, organism-based; design: time < 24 hrs, dose 10 mg/kg, route po; settings: in vivo
[29] = Metabolic stability in human liver microsomes assessed as half life; type: ADME, Microsome
THP-1 = experiment: Antiproliferative activity against human THP-1 cells incubated for 72 hrs by CCK8 assay; type: functional, cell-based; settings: THP-1, 72 h
[30] = target: T2, Alpha-ketoglutarate-dependent dioxygenase alkB homolog 3 (Homo sapiens) (UniProt Q96Q83); experiment: Inhibition of ALKBH3 (unknown origin)
T2 sequence (whole entry): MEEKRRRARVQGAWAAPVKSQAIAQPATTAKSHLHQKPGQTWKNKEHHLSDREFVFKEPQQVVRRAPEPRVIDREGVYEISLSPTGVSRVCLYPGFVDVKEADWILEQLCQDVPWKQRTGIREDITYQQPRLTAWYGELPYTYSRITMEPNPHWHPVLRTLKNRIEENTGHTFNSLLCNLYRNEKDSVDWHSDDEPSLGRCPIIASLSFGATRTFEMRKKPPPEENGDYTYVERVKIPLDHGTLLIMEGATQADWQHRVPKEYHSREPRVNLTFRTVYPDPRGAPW

MOLM-13 [31] = experiment: Inhibition of colony formation in human MOLM-13 cells incubated for 14 days by nitroblue tetrazolium chloride staining based assay; type: functional, cell-based; settings: time 14.0 day
Mus musculus = experiment: In vivo inhibition of FTO in human MV4-11 cells xenografted in BALB/c mouse assessed as increase in m6A abundance at 40 mg/kg, ip administered daily for 26 days; type: functional, organism-based; settings: time 26.0 day
MV4-11 [32] = experiment: Antiproliferative activity against human MV4-11 cells incubated for 72 hrs by CCK8 assay; type: functional, cell-based; settings: MV4-11, 72 h
[33] = Tmax in ICR mouse at 10 mg/kg, po measured upto 24 hrs by LC-MS/MS analysis; type: ADME, organism-based; settings: in vivo
NB-4 [34] = experiment: Inhibition of colony formation in human NB4 cells incubated for 14 days by nitroblue tetrazolium chloride staining based assay; type: functional, cell-based; settings: time 14.0 day

- IC50 [5]: 6800 nM
Structure (SMILES): CCc1cc(-c2ccncc2)cc(CC)c1Nc1cccc(CN(CC)CCN2CCOCC2)c1C(=O)O

- IC50 [5]: 6300 nM
Structure (SMILES): CCc1cc(-c2ccncc2)cc(CC)c1Nc1cccc(CN(CCOC)CCOC)c1C(=O)O

- Tmax [6]: 1.5 h
- bioavailability [7]: 17.5%
- microsomal CLint [10]: < 7.5 µL/min/mg
- half-life [12]: 1.76 h
- AUC(0-inf) [13]: 39200 ng·h/mL
- Papp [1]: 17.4 ×10⁻⁶ cm/s
- AUC(0-t) at 24 h [18]: 36200 ng·h/mL
- Cmax [21]: 5400 ng/mL
- Cmax [24]: 8500 ng/mL
- solubility [3]: 275 µM (≈ 99.1 µg/mL)
- AUC(0-t) at 24 h [26]: 63600 ng·h/mL
- microsomal CLint [27]: < 7.5 µL/min/mg
- AUC(0-inf) [28]: 68800 ng·h/mL
- half-life [29]: > 3.08 h
- Tmax [33]: 1 h
Structure (SMILES): Cc1noc(C)c1-c1cc(F)c(Nc2ccccc2C(=O)O)c(Cl)c1

- IC50 (MOLM-13 [4]): 1500 nM
Structure (SMILES): Cc1noc(C)c1-c1cc(F)c(Nc2cccc(CN3CCCOCC3)c2C(=O)O)c(F)c1F
- IC50 (NB-4 [2]): 1000 nM

- IC50 (MOLM-13 [4]): 1500 nM
Structure (SMILES): Cc1noc(C)c1-c1c(F)c(F)c(Nc2cccc(CN3CCCOCC3)c2C(=O)O)c(F)c1F
- IC50 (NB-4 [2]): 1000 nM

- IC50 [5]: 6500 nM
Structure (SMILES): CCc1cc(-c2ccncc2)cc(CC)c1Nc1cccc(Cn2ccnc2)c1C(=O)O

- IC50 (MOLM-13 [4]): 1500 nM
Structure (SMILES): CCc1cc(-c2ccncc2)cc(CC)c1Nc1cccc(CN2CCCOCC2)c1C(=O)O
- IC50 (NB-4 [2]): 1000 nM

- Papp [1]: 4.5 ×10⁻⁶ cm/s
- solubility [3]: 18.1 µM (≈ 8.86 µg/mL)
- IC50 (MOLM-13 [4]): 1500 nM
- IC50 [5]: 4000 nM
Structure (SMILES): Cc1n[nH]c(C)c1-c1cc(Cl)c(Nc2cccc(CN3CCCOCC3)c2C(=O)O)c(Cl)c1
- IC50 (NB-4 [2]): 1000 nM

The next lines start with the compound.

Structure (SMILES): Cc1noc(C)c1-c1cc(Cl)c(Nc2cccc(CN3CCCOCC3)c2C(=O)O)c(C(F)(F)F)c1
- Papp [1]: 14.1 ×10⁻⁶ cm/s
- IC50 (NB-4 [2]): 2300 nM
- solubility [3]: 42.6 µM (≈ 22.3 µg/mL)
- IC50 (MOLM-13 [4]): 2200 nM
- IC50 [5]: 6100 nM

Structure (SMILES): O=C(O)c1c(CN2CCCOCC2)cccc1Nc1c(Cl)cc(-c2nnn[nH]2)cc1Cl
- Papp [1]: < 0.001 ×10⁻⁶ cm/s
- solubility [3]: 305 µM (≈ 141 µg/mL)

Structure (SMILES): CCc1cc(-c2c(C)noc2C)cc(CC)c1Nc1cccc(CN2CCCOCC2)c1C(=O)O
- IC50 (NB-4 [2]): 1000 nM
- IC50 (MOLM-13 [4]): 1500 nM

Structure (SMILES): Cc1noc(C)c1-c1cc(Cl)c(Nc2cccc(CN3CCCOCC3)c2C(=O)O)c(C2CC2)c1
- Tmax [6]: 2.5 h
- bioavailability [7]: 18.5%
- IC50 [8]: 2300 nM
- inhibition [9]: inactive
- microsomal CLint [10]: 13.3 µL/min/mg
- inhibition [11]: Active
- half-life [12]: > 3.08 h
- AUC(0-inf) [13]: 55600 ng·h/mL
- Activity [14]: Non-Toxic
- Papp [1]: 21.4 ×10⁻⁶ cm/s
- inhibition [15]: Active
- inhibition [16]: Active
- inhibition [17]: Active
- AUC(0-t) at 24 h [18]: 46200 ng·h/mL
- Activity (MV4-11 [19]): Active
- Activity (MV4-11 [20]): Active
- Cmax [21]: 3700 ng/mL
- inhibition [22]: Active
- IC50 (NB-4 [2]): 1500 nM
- IC50 [23]: 120 nM
- IC50 (HEL): 10300 nM
- Cmax [24]: 7200 ng/mL
- solubility [3]: 7.6 µM (≈ 3.77 µg/mL)
- inhibition [25]: Active
- AUC(0-t) at 24 h [26]: 80500 ng·h/mL
- IC50 (MOLM-13 [4]): 1700 nM
- microsomal CLint [27]: 15.1 µL/min/mg
- IC50 (KG-1): 4100 nM
- AUC(0-inf) [28]: 103000 ng·h/mL
- half-life [29]: 1.53 h
- IC50 (THP-1): 6000 nM
- inhibition [30]: inactive
- inhibition (MOLM-13 [31]): Dose-Dependent Effect
- inhibition (Mus musculus): Active
- IC50 (MV4-11 [32]): 3400 nM
- Tmax [33]: 0.5 h
- inhibition (NB-4 [34]): Dose-Dependent Effect
- IC50 [5]: 2300 nM

Structure (SMILES): O=C(O)c1c(CN2CCCOCC2)cccc1Nc1c(C2CC2)cc(-c2ccncc2)cc1C1CC1
- IC50 [5]: 2600 nM

Structure (SMILES): CCc1cc(-c2ccncc2)cc(CC)c1Nc1cccc(CN(CC)CC)c1C(=O)O
- IC50 [5]: 7600 nM

Structure (SMILES): CCc1cc(-c2ccncc2)cc(CC)c1Nc1cccc(CN2CC(N(C)C)C2)c1C(=O)O
- IC50 (NB-4 [2]): 1000 nM
- IC50 (MOLM-13 [4]): 1500 nM
